Results on 1 compound are retold here after patent publication US20050049278A1, “Benzo[1,3]dioxole compounds, pharmaceutical compositions thereof, and processes of making and using the same” (priority 2003, published 2005).

Assay [1] has as its system NCl/ADR (breast adenocarcinoma). As to the kind of experiment: Cell viability (cell proliferation assay), NCl/ADR. It is filed as cell-based. Conditions: 48 to 72 hr exposure. As for the experimental part:
(§1) HEK293 cells were seeded into each well of a 96-well plate (5000 cells/well) and incubated overnight to allow the cells to attach. The culture media was removed and replaced with 100 μl of phenol red-free media containing the compounds 5a, 5a,b, and 9a at various concentrations. The cells were allowed to grow in the presence of the compounds for 48 hrs. At the end of the treatment, 20 μl of CellTiter 96 Aqueous One Solution reagent was added directly into each well, and the cells were incubated at 37° C. for 2 hrs. This reagent converts to a form that absorbs light at 490 nm by living cells. Thus, absorbance at 490 nm is proportional to the number of viable cells. The 490 nm absorbance was measured on a BioRad plate reader. Control wells containing no cells were included in this assay to correct for background absorbance.
(§2) The effect of compound 9a on the viability of cancer cell lines as well as dividing and non-dividing mouse Swiss3T3 cells was studied.
(§3) In particular, the cell proliferation assay, as described in Example 15, was used to test the effect of a 48 to 72 hr exposure of these cell lines to compound 9a at various concentrations.

Assay [2] concerns A549 (non-small cell lung carcinoma). In words: Cell viability (cell proliferation assay), A549. It is filed as cell-based. Conditions: Homo sapiens, 48 to 72 hr exposure. As for the experimental part:
as §1, §2, §3

In assay [3] the test system is HT29 (colorectal adenocarcinoma). In words: Cell viability (cell proliferation assay), HT29. It is filed as cell-based. Conditions: Homo sapiens, HT-29, 48 to 72 hr exposure. As for the experimental part:
as §1, §2, §3

The subject of assay [4] is PC3 (prostate adenocarcinoma). In words: Cell viability (cell proliferation assay), PC3. It is filed as cell-based. As to conditions: 48 to 72 hr exposure. As for the experimental part:
as §1, §2, §3

Assay [5] has as its system HCT15 (colorectal adenocarcinoma). As to the kind of experiment: Cell viability (cell proliferation assay), HCT15. It is filed as cell-based. Conditions: Homo sapiens, HCT-15, 48 to 72 hr exposure. As for the experimental part: as §1, §2, §3
Assay [6] deals with SW480 (colorectal adenocarcinoma). In words: Cell viability (cell proliferation assay), SW480. As to conditions: Homo sapiens, 48 to 72 hr exposure. It is filed as cell-based. As for the experimental part:
as §1, §2, §3

The subject of assay [7] is HOP-18 (non-small cell lung carcinoma). In words: Cell viability (cell proliferation assay), HOP-18. It is filed as cell-based. Conditions: Homo sapiens, 48 to 72 hr exposure. As for the experimental part:
as §1, §2, §3

In assay [8] the test system is OVCAR-4 (ovarian adenocarcinoma). In words: Cell viability (cell proliferation assay), OVCAR-4. It is filed as cell-based. Conditions: Homo sapiens, 48 to 72 hr exposure. As for the experimental part:
as §1, §2, §3

Assay [9] concerns Swiss 3T3 dividing fibroblast. As to the kind of experiment: Cell viability (cell proliferation assay), dividing Swiss 3T3. It is filed as cell-based. Conditions: Mus musculus, 48 to 72 hr exposure. As for the experimental part:
as §1, §2, §3

Assay [10] relates to Swiss 3T3 non-dividing fibroblast. In words: Cell viability (cell proliferation assay), non-dividing Swiss 3T3. It is filed as cell-based, mouse. As for the experimental part: as §1, §2, §3
The subject of assay [11] is HTS-tubulin (90% tubulin plus 10% microtubule associated proteins). In words: Microtubule polymerization assay (turbidity at 340 nm). It is filed as biochemical. Conditions: absorbance at 340 nm, 30 minutes, 37° C., FIG. 3. As for the experimental part:
Microtubule polymerization assays were performed to determine if compounds, such as compound 9a, cause G2/M cell cycle arrest by affecting microtubule dynamics. A microtubule polymerization assay was performed that takes advantage of the observation that there is an increase in turbidity that can be measured at 340 nm as tubulin heterodimers polymerize to form microtubules. In brief, HTS-tubulin (90% tubulin plus 10% microtubule associated proteins; Cytoskeleton Inc., Denver, Colo.) was resuspended in G-PEM buffer (80 mM Pipes, pH 6.9; 2 mM MgCl2; 0.5 mM EDTA; 1 mM GTP) to 10 mg/ml. This suspension was clarified by centrifugation for 10 min. at 225,000×g. The supernatant was then diluted with G-PEM buffer to 2 mg/ml and 100 μl of this solution was added to the appropriate number of ½-area wells in a 96-well format (Corning). Each compound (10 μl of a 10× final concentration in 10% DMSO) was added to the wells in duplicate and immediately put into a pre-warmed (37° C.) Spectromax 190 plate reader. The absorbance was read at 340 nm immediately (time=0) and every minute thereafter for 30 minutes.
The tubulin mix was incubated in the presence of paclitaxel (a microtubule stabilizing agent), nocodazole (a microtubule destabilizing agent), vehicle control (DMSO), or varying concentrations of compound 9a (FIG. 3).

In general, EC50 refers to the midpoint of the concentration-response curve. High values mean a less potent agent, low ones a more potent agent.

With `COc1ccc2c(c1N)C(=O)O[C@@H]2[C@H]1c2c(cc3c(c2OC)OCO3)CCN1C` [Compound 9a, 7-amino-6-methoxy-3-(4-methoxy-6-methyl-5,6,7,8-tetrahydro-[1,3]dioxolo[4,5-g]isoquinolin-5-yl)-3H-isobenzofuran-1-one], the EC50 is under 50 nM in [1]; under 100 nM in [2]; under 100 nM in assay [3]; under 100 nM in assay [4]; under 100 nM in [5]; under 100 nM in assay [6]. Besides, the EC50 in [7] was under 100 nM; in assay [8], under 100 nM; in [9], under 100 nM; in [10] (Mus musculus, Swiss 3T3 non-dividing fibroblast, 48 to 72 hr exposure) it was over 50000 nM. Also, the “effect on viability” value in assay [10] (non-dividing Swiss 3T3 fibroblasts, even at 50 μM) is “no effect was observed”. Also, in assay [11], the “effect on microtubule polymerization” value is reported as “dose-dependent decrease of microtubule polymerization”.
